# Conditions: buffer; pH 7.4; 6.0 h; 150.0 µM
row,Structure (SMILES),solubility kinetic [µg/mL]
1,Fc1cc(Nc2nc(-c3ccncc3)nc3ccccc23)ccc1-n1cncn1,< 1
2,Cc1ccc(S(=O)(=O)Nc2ccccc2C(=O)Nc2nc(-c3ccccc3)c(C)s2)cc1,< 1
3,COc1ccc(-c2ccc3ncc4c(c3c2)n(-c2ccc(N3CCNCC3)c(C(F)(F)F)c2)c(=O)n4C)cn1,< 1
4,O=[N+]([O-])c1cccnc1N/N=C/c1ccccc1O,< 1
5,COc1ccc(S(=O)(=O)N(CC(=O)Nc2ccc(C)cc2)c2ccc(C)cc2)cc1OC,< 1
6,CCOc1ccc(/C=C/c2nc3ccccc3n2S(=O)(=O)c2cccc(Cl)c2)cc1,0.035
7,Cc1cccc(-n2cnc3cc(C(=O)N4CCC(Br)CC4)ccc32)c1,35.2
8,CC(=O)c1c(C)[nH]c(C(=O)Nc2cccc([S+](=O)([O-])N3CC[C@@H](F)C3)c2)c1C,23.3
9,O=C1CCc2cc(S(=O)(=O)Nc3ccc(F)c(Cl)c3)c(F)cc2N1,13.4
10,Cc1cccc(CNc2ccc(S(=O)(=O)Nc3nccs3)cc2)c1O,> 55
11,CC(=O)c1c(C)[nH]c(C(=O)Nc2ccc(C)c(S(=O)(=O)N3CCCCCC3)c2)c1C,1.05
12,Cc1ccc2c(c1)[nH]c1c(N3CCN(Cc4ccccc4)CC3)ncnc12,< 1
13,COc1ccc(NC(=O)CCCc2nnc3n(CCC(C)C)c(=O)c4sccc4n23)cc1Cl,< 1
14,Cc1ccc(S(=O)(=O)Nc2cnccc2C(=O)Nc2nc(-c3ccco3)cs2)cc1,> 65
15,CCOC(=O)N1CCN(Cc2nc3c(c(=O)n(C)c(=O)n3C)n2Cc2ccc(F)cc2)CC1,> 68
16,COCCCOc1ccnc(CS(=O)c2nc3ccccc3[n-]2)c1C (stereo not given),19.2
17,CC1CC(C)(C)N(C(=O)CN2C(=O)c3ccccc3C2=O)c2ccccc21 (stereo not given),7.25
18,Cc1cccc(NC(=S)N2CCN(c3cccc(C(F)(F)F)c3)CC2)c1,1.59
19,CCc1ccc2oc(=O)cc(CN3CCN(c4ccccc4F)CC3)c2c1,< 1
20,COc1ccc(NC(=O)c2[nH]c(C)c(C(C)=O)c2C)cc1,35.3
21,Cc1cccc(S(=O)(=O)c2cn(Cc3ccccc3)c3cc(N4CCCCC4C)c(F)cc3c2=O)c1 (stereo not given),< 1
22,C[C@@]1(C(=O)Nc2ccc(F)nc2)CCCN1c1nc(Nc2cc(C3CC3)[nH]n2)c2cccn2n1,31.1
23,COc1cccc2c1CCCC2CCCN1CCN(C2CCCCC2)CC1 (stereo not given),> 55
24,Cc1nc2ccc(C(=O)N3CCC4(CC3)CC(=O)c3c(cnn3C(C)C)C4)cc2[nH]1,> 60
25,O=C(c1ccco1)N1CCN(c2nc(-c3ccc(Br)cc3)cs2)CC1,2.3

row,Structure (SMILES),solubility kinetic [µg/mL]
1,C[C@@H]1C(=O)O[C@H]2[C@H]1CC[C@@]1(C)Cc3sc(NS(=O)(=O)Cc4ccccc4)nc3[C@@H](C)[C@H]21,> 68
2,Fc1cc(Nc2nc(-c3ccncc3)nc3ccccc23)ccc1N1CCNCC1,4.02
3,Cc1ccccc1N(C)C1CN([S+](=O)([O-])c2cccc(C(F)(F)F)c2)C1,1.42
4,COc1ccc2[nH]c(=O)c(-c3noc(-c4ccc(F)cc4)n3)cc2c1,< 1
5,CC(=O)c1c(C)[nH]c(C(=O)Nc2cccc([S+](=O)([O-])Nc3cccnc3)c2)c1C,> 61
6,Cc1cnc(-c2ccccc2C(F)F)nc1NCc1ccc(-n2ccnn2)cc1,< 1
7,COc1ccccc1-c1csc(N2CCC(C(N)=O)CC2)n1,3.08
8,CCOc1ccc(CCNC(=O)c2cc3sccc3n2Cc2ccccn2)cc1OCC,< 1
9,Cc1nnc2c3ccccc3nc(N3CCN(c4ccccc4)CC3)n12,< 1
10,Fc1ccc(Cl)cc1-c1nc(Nc2ccncc2)c2nccnc2n1,1.6
11,C[C@H]1CN(C(=O)Nc2ccc(F)cc2)C[C@@H]1c1nc(-c2ccccc2)no1,4.11
12,Oc1cccc2nc3ccccc3nc12,> 29
13,CS(=O)(=O)Nc1cccc(-c2nccc(-n3ccnc3)n2)c1,> 47
14,OCC(O)CCO/N=C1/C(c2c(O)[nH]c3ccccc23)=Nc2ccccc21 (stereo not given),< 1
15,COc1ccc(-c2nc(CS(=O)CC(=O)N3CCC4(CC3)OCCO4)c(C)o2)cc1 (stereo not given),> 64
16,CCn1c(C(=O)N2CCCC(C(=O)NCCc3ccc(C)cc3)C2)cc2sccc21 (stereo not given),17.1
17,Cc1ccc2oc(NC3=NC(c4[nH]ncc4Cl)C4=C(CCCC4=O)N3)nc2c1 (stereo not given),1.35
18,CCOc1ccc(CCNC(=O)c2ccc(Oc3ccccc3)cc2)cc1OCC,< 1
19,CCOc1ccc(NC(=O)c2ccc(F)c(S(=O)(=O)N(CC)Cc3ccccc3)c2)cc1,< 1
20,CCOC(=O)C1CCN(C(=O)C2(NC(=O)Nc3ccc(F)cc3F)CCCCC2)CC1,41.8
21,Cc1ccc(-n2nc(C)c3c(-c4ccc(O)c(O)c4)c(C#N)c(N)nc32)cc1C,1.81
22,Cc1cc(NS(=O)(=O)c2ccc(NC(=O)c3oc4ccccc4c3C)cc2)nc(C)n1,< 1
23,CC(C)(C)C1CCc2c(sc(NC(=O)c3ccncc3)c2C(N)=O)C1 (stereo not given),< 1
24,CC(C)(C)c1ccc(C(=O)Nc2cn3cc(-n4ccnc4)ccc3n2)cc1,< 1
25,CCOC(=O)C1CCN(c2ncnc3c2c(-c2ccccc2)cn3-c2ccccc2)CC1,< 1

row,Structure (SMILES),solubility kinetic [µg/mL]
1,COc1cnccc1-c1nc(Nc2ccc(F)c(F)c2)c2ccccc2n1,> 54
2,CCn1c(SCc2ccc(C#N)cc2)nnc1-c1cccc(Cl)c1,34.2
3,Cc1ccc(C(=O)N2CCc3sc(C(=O)NC(C)c4ccccc4)cc3C2)cc1 (stereo not given),2.09
4,Cc1cccc(CN2CCN(c3ccccn3)CC2)c1,30.9
5,Fc1cc(Nc2nc(-c3ccncc3)nc3ccccc23)ccc1OC(F)(F)F,< 1
6,CCOC(=O)Cc1ccc(NC(=O)n2ncc3cc(Cl)ccc32)cc1,< 1
7,CCCN1C(CC(C)C)=NS(=O)(=O)c2cc(NC(=O)c3cccs3)ccc21,< 1
8,Cc1ccc(C(=O)N2CCc3c(nc4cc(-c5ccccc5)[nH]n4c3=O)C2)cn1,8.67
9,Cc1cc(C)c(C(=O)Nc2cccc([S+](=O)([O-])Nc3ccc(Br)cc3)c2)[nH]1,< 1
10,COc1c2c(c3c(c1CCC(=O)O)OC(C)(C)C=C3)OC(C)(C)C=C2,> 51
11,COc1ccc(-n2nc(C3CCCN(C(=O)Cc4ccc(F)cc4)C3)[nH]c2=O)cc1 (stereo not given),> 61
12,Cc1cc(C)nc(NC(=S)N2CCN(c3ccc4nsnc4c3)CC2)c1,27.7
13,COC(=O)c1ccc(NS(=O)(=O)c2c(C)nc3sccn3c2=O)cc1,> 56
14,O=[N+]([O-])c1ccc(/C=N/n2c(CO)nc3ccccc32)s1,< 1
15,Nc1ncc(S(=O)(=O)N2CCOCC2)s1,> 37
16,Cc1ccc(S(=O)(=O)Nc2cc(F)c(F)cc2C(=O)Nc2nc(-c3ccccc3)cs2)cc1,< 1
17,Cc1cc(NS(=O)(=O)c2ccc(C(=O)NCc3ccc(Cl)c(Cl)c3)cc2)no1,> 65
18,Cc1cnc(-c2ccccc2C(F)F)nc1NCc1ccc(-c2cccnc2)cc1,1.07
19,CN(C)C(=O)c1cc2cnc(Nc3ccc(N4CCNCC4)cn3)nc2n1C1CCCC1,> 64
20,O=C(c1cccc(F)c1)N1CCC2(CCN(Cc3cc(C(F)(F)F)cc(C(F)(F)F)c3)CC2)CC1,3.62
21,CCNC(=O)Nc1ncc(-c2cc(-c3c(C)cc(OC)cc3C)nc(-c3cnccn3)n2)s1,< 1
22,COc1ccc2oc(NC3=NC(c4[nH]ncc4Cl)C4=C(CCCC4=O)N3)nc2c1 (stereo not given),11.2
23,CCN1CCN(c2ccc3cc(S(=O)(=O)N4CCOCC4)ccc3n2)CC1,> 58
24,COc1ccc(C(=O)CCN(C)C)cc1F,> 33
25,OC1(CN2CCN(c3ccc(F)c(Cl)c3)CC2)CCCNC1 (stereo not given),> 48

row,Structure (SMILES),solubility kinetic [µg/mL]
1,O=C(Cc1c[nH]c2ncc(-c3ccc(Cl)cc3)cc12)NCc1cccnc1,17.5
2,O=C(Nc1nc2cc(C(F)(F)F)cc(NC3CC3)n2n1)c1cccnc1,< 1
3,CNC(=O)C1CCN(C(=O)c2ccc(-c3ncc4cnc(-c5ccccc5)cn34)cc2)CC1,40.8
4,CN(C)CCCN1c2ccc(O)cc2Sc2ccc(Cl)cc21,> 49
5,Cc1cnc(-c2ccccc2C2COC2)nc1NCC1CCN(c2cccnc2)CC1,> 61
6,Fc1cc(Nc2nc(-c3ccncc3)nc3ccccc23)ccc1N1CCCCC1,< 1
7,CNc1nc(-c2ccc3c(N)n[nH]c3c2)cc(N2C[C@@H](C(=O)NC3CCCCC3)CC[C@H]2C)n1,15.2
8,COc1ccc2[nH]c(=O)c(-c3noc(-c4ccccc4)n3)cc2c1,< 1
9,NC(=O)C1CCN(c2ncc(Br)cn2)CC1,> 42
10,COc1ccccc1C(=O)Nc1ccccc1C(=O)Nc1cccc(C(F)(F)F)c1,< 1
11,Cc1ccccc1C(=O)N1CCc2cc(-c3ccnc(NC(=O)Cc4ccccc4)n3)ccc21,6.19
12,O=C(c1ccc2c(c1)ncn2-c1ccccc1)N1CCCCC1,> 45
13,COc1ccc(Cl)cc1C(=O)Nc1nc(-c2ccccc2)cs1,< 1
14,O=C(O)c1ccc(N2C(=O)/C(=C/c3ccc(-c4ccc([N+](=O)[O-])cc4)o3)C=C2c2ccccc2)cc1,31.4
15,COc1cccc(NC(=O)c2cc(-c3ccc(C)c(C)c3)nc3ccccc23)c1,< 1
16,COc1cc2c(cc1Oc1cccc(N(C)C)c1)NC(=O)C21CCN(c2cnccn2)CC1,2.21
17,CN1CCN(C(=O)Cc2c[nH]c3ncc(-c4ccccc4Oc4ccccc4)cc23)CC1,> 42
18,Cc1ccc2cccc(NC(=O)c3ccc(OC(C)C)cc3)c2n1,< 1
19,Nc1ccc(S(=O)(=O)Nc2cnccc2C(=O)Nc2nc(-c3ccccc3)cs2)cc1,43.2
20,COc1cc(-c2nc(-c3ccccc3)c(-c3cccs3)[nH]2)cc(OC)c1O,< 1
21,Nc1ncnc2c1C(=O)N(c1ccc(C3CCC(CC(=O)O)CC3)cc1)CCO2 (stereo not given),> 59
22,Cc1ccc(S(=O)(=O)Nc2cccnc2C(=O)Nc2nc(-c3ccccc3)cs2)cc1,< 1
23,O=C(O)CCC(=O)Nc1nc(-c2ccccc2)cs1,> 41
24,COc1ccc(-n2c(C)c(C(C)=O)c3cc(O)ccc32)cc1,5.69
25,CCC(=O)NC(c1ccc(OC)cc1)c1cc(Cl)c2cccnc2c1O (stereo not given),< 1
